The text below walks through data of PubChem BioAssay AID463229 (Broad Institute, 2010).

SMILES strings stand for the structures. The source made the active and inactive calls.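 How the source made its calls: active means compounds raising the signal whose fitted half-maximal concentration is at or below their top tested dose (cut at about 25 µM in these data); inconclusive means flat fit at 30 to 70% activity, or a poor fit; inactive means the rest.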 A value given as a limit tells only on which side of the number the result lay.

This test has as its system INS-1E rat beta cells, no cytokines, CellTiter-Glo ATP, 48 h. The test is described as follows: cytokine-free beta-cell viability effect – INS-1E rat cells, ATP luminescence, cherry pick, counter-screen for beta-cell apoptosis protection project, dose response (AID 463229).
For the compound `O=C(c1cc(COc2ccc3ncccc3c2)on1)N1CCCCCC1`, the AC50 is 8.02 µM.
Then `CC1CC(=O)c2c(cc3c(-c4c(O)cc(O)c5c(O)c6c(cc45)OC(C)CC6=O)c(O)cc(O)c3c2O)O1` (stereo unspecified), with 5.1 µM; and `O=[N+]([O-])c1c(Nc2ccccn2)cc(Cl)c2nonc12`, with 7.39 µM; and `CN(C)S(=O)(=O)c1cccc(NC(=S)N/N=C/c2cc(Br)ccc2O)c1`, with 2.72 µM.
Regarding `Cc1c(C)c2cccnc2c2ncccc12`, the AC50 is 2.49 µM.
Consider `COc1cc(SC)ccc1C(=O)Nc1nc2ccccc2[nH]1`, for which the concentration at half-maximal activity (AC50) was 1.21 µM.
On to `Cc1ccc2nc(NNC(=O)c3ccc(S(=O)(=O)N4CCc5ccccc5C4)cc3)sc2c1`, for which the AC50 was 4.18 µM.
Turning to `CCCCCCn1c(=O)c(C(=O)Nc2ncccc2C)c(O)c2ccccc21`, the half-maximal activity concentration (AC50) is 5.5 µM.
With `Cc1sc2ncnc(NCC(C)(C)N3CCOCC3)c2c1C`, the AC50 is 6.11 µM.
Turning to `CCCC(=O)NC(NC(=S)Nc1ccc(N=Nc2ccccc2)cc1)C(Cl)(Cl)Cl` (stereo unspecified), the concentration at half-maximal activity (AC50) is 7.51 µM.
On to `Cc1ccc(NS(=O)(=O)c2cc([N+](=O)[O-])ccc2N/N=C/c2sc(N3CCOCC3)nc2-c2ccccc2)c(C)c1`, for which the half-maximal activity concentration (AC50) was 11.9 µM.
Take `Oc1c(C(c2ccccc2Cl)N2CCCC2)ccc2cccnc12` (stereo unspecified): the AC50 is 7.11 µM.
Take `CCOC(=O)C(=CNc1ccc(C(O)(C(=O)OCC)C(F)(F)F)cc1C)C(=O)OCC` (stereo unspecified): the AC50 is 5.26 µM.
On to `Cc1ncc(CO)c(/C=N/NC(=O)c2cc3c(s2)CCCC3)c1O`, for which the concentration at half-maximal activity (AC50) is 5.92 µM.
Regarding `CCOC(=O)c1[nH]cnc1N=Nc1c(O)ccc2ccccc12`, the AC50 was 2.28 µM.
Then `Cc1ccccc1OCCn1c(C)nc2ccccc21`, with 15.2 µM; and `COc1cc2c(cc1OC)[C@@H]1C(=O)c3ccc4c(c3O[C@@H]1CO2)C[C@H](C(C)C)O4`, with less than 0.195 µM; and `NC1=C(Br)C(=O)c2ccccc2C1=O`, with 18.2 µM.
Regarding `Cc1occc(=O)c1OC(=O)Nc1ccc(Cl)c(Cl)c1`, the AC50 was 7.74 µM.
Then `CCOC(=O)c1cnc(-n2nc(C)cc2C)nc1NNc1nc(-c2ccccc2)cc(-c2ccccc2)n1`, with 4.09 µM; and `CCC1CCCCN1C(=O)c1cc(COc2ccc(-n3cncn3)cc2)on1` (stereo unspecified), with 16.5 µM.
As for `COc1ccc(CC(=O)Nc2ccncc2Cl)cc1`, the concentration at half-maximal activity (AC50) is 10.6 µM.
In the case of `Cc1ccc(-n2ncc3c2CCCC3NC(=O)c2ocnc2C)cc1C` (stereo unspecified), the AC50 was 6.97 µM.
For `COc1ccc(C2NCCc3c2[nH]c2ccccc32)cc1COc1ccc(F)cc1` (stereo unspecified), the half-maximal activity concentration (AC50) was 14 µM.
Turning to `CCCCCCc1cc2cc(-c3nnc(-c4ccccc4)o3)c(=O)oc2cc1O`, the half-maximal activity concentration (AC50) was 7.25 µM.
With `CC(C)Cn1c(N)c(C(=O)CSc2ccc3c(c2)OCCO3)c(=O)n(C)c1=O`, the AC50 is 4.85 µM.
On to `CCCN(CCC)c1nc(-c2ccccn2)nc2ccccc12`, for which the concentration at half-maximal activity (AC50) is 4.34 µM.
`O=C(Oc1c(CN2CCOCC2)cc(Cl)c2cccnc12)c1ccc(F)cc1`: the AC50 was 14 µM.
For `Cn1c(SCC(=O)N/N=C/c2ccc([N+](=O)[O-])s2)nnc1-c1ccc(Cl)cc1`, the AC50 is 12.1 µM.
Take `O=S(=O)(Nc1nc2ccccc2nc1Nc1ccc(N2CCOCC2)cc1)c1cc(Cl)ccc1Cl`: the concentration at half-maximal activity (AC50) was 6.63 µM.
Turning to `CCCC[C@@H](CN[C@H](C)CNC)NCC1CCC(C(C)(C)C)CC1` (stereo partly specified), the AC50 is 15 µM.
For the compound `Cc1cc[n+](C(C)C(=O)c2ccc(-c3ccccc3)cc2)cc1` (stereo unspecified), the half-maximal activity concentration (AC50) is 3.81 µM.
In the case of `Oc1[nH]c2ccccc2c1N=NC(=S)N1CCOCC1`, the AC50 is 3.98 µM.
Consider `Cc1ccc(C)c(S(=O)(=O)Nc2cc(SCC(=O)O)c(O)c3ccccc23)c1`, for which the AC50 was 7.19 µM.
As to `Cc1ccc2nc(N(CCCN(C)C)C(=O)c3ccc(S(=O)(=O)N4CCc5ccccc5C4)cc3)sc2c1`, the half-maximal activity concentration (AC50) was 6.99 µM.
Under `O=C(NCc1cccnc1)/C(=C/c1ccc(-c2cccc(Cl)c2)o1)S(=O)(=O)c1ccccc1` stands 4.93 µM; under `O=C(NN=C(c1ccccc1)c1ccccn1)c1ccccc1`, 2.55 µM; under `NNc1ncnc2scc(-c3ccc(Cl)cc3)c12`, 14.5 µM.
Turning to `c1ccc(C(c2ccccc2)N2CCN(c3nc4ccccc4n4cnnc34)CC2)cc1`, the concentration at half-maximal activity (AC50) is 4.73 µM.
In the case of `Cc1ccc2oc(-c3ccc(NC(=O)c4cccnc4)cc3)nc2c1`, the AC50 was 19.1 µM.
As for `CCSCCc1nnc(NC(=O)Nc2cccc(C(F)(F)F)c2)s1`, the half-maximal activity concentration (AC50) was 4.25 µM.
As to `COc1ccc(Cn2c(SCc3ccc(C)cc3)nc3cc(OC)c(OC)cc3c2=N)cc1Cl`, the concentration at half-maximal activity (AC50) is 6.89 µM.
In the case of `O=S(=O)(c1cc(F)ccc1F)N1CCN(c2ncnc3ccccc23)CC1`, the AC50 is 5.01 µM.
On to `CC(=O)c1c(C)[nH]c(C(=O)OCC(=O)Nc2ccc(C)cc2[N+](=O)[O-])c1C`, for which the half-maximal activity concentration (AC50) was 1.6 µM.
Under `Oc1c(N=Nc2ccccn2)ccc2ccccc12` stands 1.86 µM; under `O=C(Nc1ccc(Cl)cc1)Nc1nnc(-c2ccncc2)s1`, 4.78 µM.
Then `CCc1ccc(C2CC(c3cccc(Cl)c3)n3nc(N)nc3N2)cc1` (stereo unspecified), with 14.7 µM; and `CCCCCCC(=O)N1C/C=C\C(c2ccc(OC)cc2)N(Cc2ccc(F)cc2)C(=O)[C@H]1Cc1ccccc1` (stereo partly specified), with 5.73 µM.
Regarding `NC1=NC[C@H](Cc2ccccc2)N1CCCCC1CCCCC1`, the concentration at half-maximal activity (AC50) is 6.91 µM.
Under `Cc1sc2ncnc(NCC(O)c3ccccc3)c2c1C` (stereo unspecified) stands 10.5 µM.
Under `Cc1ccc(N2C(=O)NC(=O)/C(=C\C=C\c3ccco3)C2=O)cc1C` stands 5.85 µM.
Consider `COc1cc2c(cc1OC)-c1c(OC)c(OC)c(OC)c3ccnc(c13)C2=O`, for which the concentration at half-maximal activity (AC50) is 6.65 µM.
`CC[N+](C)(CC)CCC(c1ccccc1)C1CCCCC1` (stereo unspecified): the AC50 was > 26 µM (inactive).
Under `CCCCCN=Cc1c(C)[nH]n(-c2nc3ccccc3s2)c1=O` stands 3.2 µM; under `CCCCS(=O)(=O)/C=C\C=C/S(=O)(=O)CCCC`, 5.48 µM; under `CCN(CC)c1ccc(/C=N/N(c2ccccc2)c2ccccc2)c(O)c1`, 4.58 µM.
Then `CCCOc1ccc(/C=N/NC(=S)Nc2ccccc2[N+](=O)[O-])c(O)c1`, with 7.44 µM.
Turning to `O=NN(CCc1ccncc1)c1ccc(OCc2ccccc2)cc1`, the AC50 is 8.16 µM.
For the compound `COc1ccccc1N1CCN(Cc2ccc(O)c3ncccc23)CC1`, the AC50 is 5.14 µM.
Then `Cc1cc(C(=O)NC2CCCc3c2cnn3-c2ccc(C)c(C)c2)n(C)n1` (stereo unspecified), with 0.378 µM.
With `c1ccc2c(NCCCN3CCOCC3)c3ccccc3nc2c1`, the half-maximal activity concentration (AC50) is 6.37 µM.
With `COC(=O)C1CCN(C(=O)c2cc(-c3ccc(Cl)s3)nc3ccccc23)CC1`, the AC50 was 3.24 µM.
As for `C/C(=N\NC(=O)c1cc(-c2cccs2)nc2ccccc12)c1ccccn1`, the AC50 was 1.92 µM.
In the case of `C=C1C(O)[C@@H]2O[C@]3(CC[C@H](/C=C/C(C)[C@@H]4CC(C)=CC5(O[C@H](C[C@@](C)(O)CO)CCC5O)O4)O3)CC[C@H]2O[C@@H]1C(O)CC(C)[C@H]1OC2(CCCCO2)CCC1C` (stereo partly specified), the AC50 is 10.7 µM.
Then `Cc1ccc(-c2nc(C(Cl)Cl)c3ccccc3n2)cc1`, with 3.51 µM; and `Cc1cc(N/N=C\c2ccc(Br)cc2)nc(-n2nc(C)cc2C)n1`, with 21.5 µM; and `Cc1cccc(C(=O)Nc2ccc(C(=O)/C=C/c3cccnc3)cc2)c1`, with 7.53 µM.
With `CCCCCCCCCC[N+](C)(C)CC/C=C1/c2ccccc2Sc2ccc(Cl)cc21`, the AC50 was 7.99 µM.
Under `CC(C)NC(=S)N/N=C/c1cc(Br)ccc1O` stands 12.6 µM; under `O=C(CCC1CCCC1)Nc1ccc(C(=O)NCc2cccnc2)cc1`, less than 0.195 µM; under `O=C(Nc1ccc(C(=O)Nc2ccccc2Cl)cc1)c1cccnc1`, 1.85 µM.
As for `N#Cc1c(N2CCCCC2)nc(N2CCCCC2)c2c1CCN(Cc1ccccc1)C2`, the AC50 is 13.8 µM.
Under `Cc1ccn2c(Nc3ccccc3C)c(-c3ccccn3)nc2c1` stands 9.55 µM.
Turning to `CC(C)(C)c1cc(C(=O)N/N=C/c2ccccc2O)n(-c2ccccc2)n1`, the AC50 is 10.1 µM.
Turning to `Cc1ccc(S(=O)(=O)N2CCN(c3ncnc4sccc34)CC2)cc1`, the AC50 was 8.15 µM.
In the case of `O=C(N/N=C/c1ccccc1O)C1CC(=O)N(c2ccc(Cl)cc2)C1` (stereo unspecified), the AC50 was 17.7 µM.
`Cc1ccc2nc(NC(=O)c3ccccn3)sc2c1`: the AC50 was 9.36 µM.
As to `CCOc1cccc(/C=N/Nc2ccc(S(=O)(=O)N(CC)CC)cn2)c1O`, the half-maximal activity concentration (AC50) is 3.67 µM.
`Cc1ccc(S(=O)(=O)/N=C2/C=C(Sc3ncn[nH]3)C(=O)c3ccccc32)cc1`: the concentration at half-maximal activity (AC50) was 8.08 µM.
In the case of `Cc1cccc(/C=N/NC(=O)c2ccc3c(c2)OCCO3)c1O`, the concentration at half-maximal activity (AC50) was 7.38 µM.
For the compound `COc1ccc(-c2c[n+]3c(n2-c2ccc(C)cc2)CCCCC3)cc1`, the AC50 is 0.317 µM.
For the compound `COc1ccc(C2/C=C\CN(C(=O)c3ccc(C)cc3)[C@H](Cc3ccccc3)C(=O)N2Cc2ccc(F)cc2)cc1` (stereo partly specified), the half-maximal activity concentration (AC50) was 7.33 µM.
Regarding `COc1ccccc1C(NC(C)=O)c1cc(Cl)c2cccnc2c1O` (stereo unspecified), the AC50 was 7.24 µM.
On to `Cc1ccc(C(C)C)c(OCc2nn(CC(=O)c3ccc(Cl)cc3)c3[n+]2CCCCC3)c1`, for which the AC50 is 4.55 µM.
`Cn1cccc1C1C=C(c2ccc(C(C)(C)C)cc2)Nc2ncnn21` (stereo unspecified): the half-maximal activity concentration (AC50) is 3.2 µM.
Consider `COc1ccc(O)c(/C=N/NC(=O)c2ccc(CSc3nc(C)cc(C)n3)cc2)c1`, for which the concentration at half-maximal activity (AC50) was 11.2 µM.
For `CC1=NOC(=O)/C1=C/c1ccc(-c2ccc(Cl)cc2)o1`, the AC50 was 7 µM.
Turning to `O=C(Nc1nc(-c2ccccn2)cs1)c1ccc(F)c(S(=O)(=O)N2CCOCC2)c1`, the AC50 was 7.51 µM.
As for `Cc1onc(-c2ccccc2)c1C(=O)NC(=S)NNC(=O)c1ccc(O)cc1O`, the concentration at half-maximal activity (AC50) is 0.657 µM.
Take `C/C(=N\NC(=O)c1cc(Br)ccc1O)c1ccccn1`: the half-maximal activity concentration (AC50) is 7.82 µM.
For the compound `CN(C)C1=NC[C@H](Cc2ccccc2)N1CCCC1CCCCC1`, the AC50 is 13.6 µM.
Under `COc1ccc(C(=O)Nc2ccccc2C(=O)N/N=C/c2ccccn2)cc1OC` stands 8.14 µM.
As for `O=C1/C(=C\c2cccnc2)CN(Cc2ccccc2)C/C1=C\c1cccnc1`, the concentration at half-maximal activity (AC50) was 7.58 µM.
For `O=[N+]([O-])c1cc(/C=N/Nc2nc3ccccc3[nH]2)c(O)cc1O`, the AC50 was 2.01 µM.
Under `CC(C)CNC(=O)COC(=O)c1c2c(nc3ccccc13)/C(=C/c1cccs1)CC2` stands 1.5 µM; under `COc1ccc2c(c1)C(=O)[C@@H](O)[C@H](c1ccc(OC)c(Br)c1)O2`, 10.4 µM.
